Measured values: ChEMBL document CHEMBL4219139, “Enantiomeric trans β-aryl-δ-iodo-γ-lactones derived from 2,5-dimethylbenzaldehyde induce apoptosis in canine lymphoma cell lines by downregulation of anti-apoptotic Bcl-2 family members Bcl-xL and Bcl-2” (2018)
Calls of active or inactive are those of the source. No cut-off for these calls is given here.

Experiments:
[1] = system: Jurkat; test: Induction of apoptosis in human Jurkat cells assessed as cleavage of Bid at 25 to 50 ug/ml after 24 hrs by Western blot analysis; format: functional, cell-based
[2] = system: CLB70; test: Cytotoxic activity against canine CLB70 cells assessed as cell death after 24 hrs by propidium iodide staining-based FACS analysis; format: functional; conditions: Canis lupus familiaris
[3] = system: CLB70; test: Induction of apoptosis in canine CLB70 cells assessed as downregulation of Bcl-xl expression at 50 ug/ml after 24 hrs by Western blot analysis; format: functional, cell-based; conditions: Canis lupus familiaris
[4] = species: Canis lupus familiaris; test: Induction of apoptosis in canine GL1 cells assessed as downregulation of Bcl-xl expression at 50 ug/ml after 24 hrs by Western blot analysis; format: functional, cell-based
[5] = species: Canis lupus familiaris; test: Induction of apoptosis in canine GL1 cells assessed as cleavage of Bid at 25 to 50 ug/ml after 24 hrs by Western blot analysis; format: functional, cell-based
[6] = system: CLB70; test: Cytotoxic activity against canine CLB70 cells assessed as cell death at 50 ug/ml after 24 hrs by propidium iodide staining-based FACS analysis; format: functional, Canis lupus familiaris
[7] = system: CLB70; test: Induction of apoptosis in canine CLB70 cells assessed as downregulation of Bcl-2 expression at 50 ug/ml after 24 hrs by Western blot analysis; format: functional, cell-based; conditions: Canis lupus familiaris
[8] = system: Jurkat; test: Induction of apoptosis in human Jurkat cells assessed as cleavage of PARP1 at 25 to 50 ug/ml after 24 hrs by Western blot analysis; format: functional, cell-based
[9] = system: CLBL-1; test: Induction of apoptosis in canine CLBL1 cells assessed as cleavage of PARP1 at 50 ug/ml after 24 hrs by Western blot analysis; format: functional, cell-based; conditions: Canis lupus familiaris
[10] = system: Jurkat; test: Induction of apoptosis in human Jurkat cells assessed as downregulation of Bcl-xl expression at 50 ug/ml after 24 hrs by Western blot analysis; format: functional, cell-based
[11] = system: CLB70; test: Induction of apoptosis in canine CLB70 cells assessed as cleavage of PARP1 at 25 to 50 ug/ml after 24 hrs by Western blot analysis; format: functional, cell-based; conditions: Canis lupus familiaris
[12] = Induction of apoptosis in canine GL1 cells assessed as activation of caspase-3/7 at 50 ug/ml after 24 hrs by flow cytometry; format: functional, Canis lupus familiaris
[13] = system: CLBL-1; test: Cytotoxic activity against canine CLBL1 cells assessed as cell death after 24 hrs by propidium iodide staining-based FACS analysis; format: functional; conditions: Canis lupus familiaris
[14] = system: CLB70; test: Induction of apoptosis in canine CLB70 cells assessed as cleavage of Bid at 25 to 50 ug/ml after 24 hrs by Western blot analysis; format: functional, cell-based; conditions: Canis lupus familiaris
[15] = species: Canis lupus familiaris; test: Cytotoxic activity against canine GL1 cells assessed as cell death after 24 hrs by propidium iodide staining-based FACS analysis; format: functional
[16] = Cytotoxic activity against canine GL1 cells assessed as cell death at 50 ug/ml after 24 hrs by propidium iodide staining-based FACS analysis; format: functional, Canis lupus familiaris
[17] = species: Canis lupus familiaris; test: Induction of apoptosis in canine GL1 cells assessed as downregulation of Bcl-xl expression at 25 ug/ml after 24 hrs by Western blot analysis; format: functional, cell-based
[18] = species: Canis lupus familiaris; test: Induction of apoptosis in canine GL1 cells assessed as downregulation of Bcl-2 expression at 50 ug/ml after 24 hrs by Western blot analysis; format: functional, cell-based
[19] = system: CLB70; test: Induction of apoptosis in canine CLB70 cells at 50 ug/ml after 24 hrs by Annexin V/FITC staining based FACS analysis; format: functional, cell-based; conditions: Canis lupus familiaris
[20] = species: Canis lupus familiaris; test: Induction of apoptosis in canine GL1 cells preincubated with Z-VAD-fmk pan-caspase inhibitor assessed as activation of caspase-3/7 at 50 ug/ml after 24 hrs by flow cytometry; format: functional, cell-based
[21] = system: CLBL-1; test: Induction of apoptosis in canine CLBL1 cells assessed as downregulation of Bcl-2 expression at 50 ug/ml after 24 hrs by Western blot analysis; format: functional, cell-based; conditions: Canis lupus familiaris
[22] = system: CLB70; test: Induction of apoptosis in canine CLB70 cells assessed as activation of caspase-3/7 at 50 ug/ml after 24 hrs by flow cytometry; format: functional, Canis lupus familiaris
[23] = system: Jurkat; test: Cytotoxic activity against human Jurkat cells assessed as cell death at 50 ug/ml after 24 hrs by propidium iodide staining-based FACS analysis; format: functional
[24] = system: Jurkat; test: Induction of apoptosis in human Jurkat cells preincubated with Z-VAD-fmk pan-caspase inhibitor assessed as activation of caspase-3/7 at 50 ug/ml after 24 hrs by flow cytometry; format: functional, cell-based
[25] = system: Jurkat; test: Induction of apoptosis in human Jurkat cells assessed as downregulation of Bcl-xl expression at 25 ug/ml after 24 hrs by Western blot analysis; format: functional, cell-based
[26] = system: Jurkat; test: Induction of apoptosis in human Jurkat cells assessed as downregulation of Bcl-2 expression at 50 ug/ml after 24 hrs by Western blot analysis; format: functional, cell-based
[27] = system: Jurkat; test: Induction of apoptosis in human Jurkat cells assessed as activation of caspase-3/7 at 50 ug/ml after 24 hrs by flow cytometry; format: functional
[28] = system: Jurkat; test: Induction of apoptosis in human Jurkat cells at 50 ug/ml after 24 hrs by Annexin V/FITC staining based FACS analysis; format: functional, cell-based
[29] = system: CLBL-1; test: Induction of apoptosis in canine CLBL1 cells preincubated with Z-VAD-fmk pan-caspase inhibitor assessed as activation of caspase-3/7 at 50 ug/ml after 24 hrs by flow cytometry; format: functional, cell-based; conditions: Canis lupus familiaris
[30] = species: Canis lupus familiaris; test: Induction of apoptosis in canine GL1 cells at 50 ug/ml after 24 hrs by Annexin V/FITC staining based FACS analysis; format: functional, cell-based
[31] = system: CLB70; test: Induction of apoptosis in canine CLB70 cells preincubated with Z-VAD-fmk pan-caspase inhibitor assessed as activation of caspase-3/7 at 50 ug/ml after 24 hrs by flow cytometry; format: functional, cell-based; conditions: Canis lupus familiaris
[32] = system: CLBL-1; test: Induction of apoptosis in canine CLBL1 cells at 50 ug/ml after 24 hrs by Annexin V/FITC staining based FACS analysis; format: functional, cell-based; conditions: Canis lupus familiaris
[33] = system: CLBL-1; test: Induction of apoptosis in canine CLBL1 cells assessed as activation of caspase-3/7 at 50 ug/ml after 24 hrs by flow cytometry; format: functional, Canis lupus familiaris
[34] = system: Jurkat; test: Cytotoxic activity against human Jurkat cells assessed as cell death after 24 hrs by propidium iodide staining-based FACS analysis; format: functional
[35] = system: CLBL-1; test: Cytotoxic activity against canine CLBL1 cells assessed as cell death at 50 ug/ml after 24 hrs by propidium iodide staining-based FACS analysis; format: functional, Canis lupus familiaris
[36] = system: CLBL-1; test: Induction of apoptosis in canine CLBL1 cells assessed as downregulation of Bcl-xl expression at 50 ug/ml after 24 hrs by Western blot analysis; format: functional, cell-based; conditions: Canis lupus familiaris
[37] = system: Jurkat; test: Induction of apoptosis in human Jurkat cells assessed as downregulation of Bcl-xl expression at 25 to 50 ug/ml after 24 hrs by Western blot analysis; format: functional, cell-based
[38] = system: CLB70; test: Induction of apoptosis in canine CLB70 cells assessed as downregulation of Bcl-2 expression at 25 to 50 ug/ml after 24 hrs by Western blot analysis; format: functional, cell-based; conditions: Canis lupus familiaris
[39] = system: CLB70; test: Induction of apoptosis in canine CLB70 cells assessed as downregulation of Bcl-xl expression at 25 to 50 ug/ml after 24 hrs by Western blot analysis; format: functional, cell-based; conditions: Canis lupus familiaris
[40] = system: CLBL-1; test: Induction of apoptosis in canine CLBL1 cells assessed as cleavage of Bid at 25 to 50 ug/ml after 24 hrs by Western blot analysis; format: functional, cell-based; conditions: Canis lupus familiaris
[41] = system: CLBL-1; test: Induction of apoptosis in canine CLBL1 cells assessed as downregulation of Bcl-2 expression at 25 to 50 ug/ml after 24 hrs by Western blot analysis; format: functional, cell-based; conditions: Canis lupus familiaris
[42] = species: Canis lupus familiaris; test: Induction of apoptosis in canine GL1 cells assessed as downregulation of Bcl-2 expression at 25 to 50 ug/ml after 24 hrs by Western blot analysis; format: functional, cell-based
[43] = system: CLBL-1; test: Induction of apoptosis in canine CLBL1 cells assessed as downregulation of Bcl-xl expression at 25 to 50 ug/ml after 24 hrs by Western blot analysis; format: functional, cell-based; conditions: Canis lupus familiaris
[44] = species: Canis lupus familiaris; test: Induction of apoptosis in canine GL1 cells assessed as downregulation of Bcl-xl expression at 25 to 50 ug/ml after 24 hrs by Western blot analysis; format: functional, cell-based
[45] = system: Jurkat; test: Induction of apoptosis in human Jurkat cells assessed as downregulation of Bcl-2 expression at 25 to 50 ug/ml after 24 hrs by Western blot analysis; format: functional, cell-based

SMILES	Activity [1]	Activity [2]	Activity [6]	Activity [8]	Activity [9]	Activity [11]	Activity [12]	Activity [13]	Activity [15]	Activity [16]	Activity [19]	Activity [20]	Activity [22]	Activity [23]	Activity [24]	Activity [27]	Activity [28]	Activity [29]	Activity [30]	Activity [31]	other results
Cc1ccc(C)c([C@H]2CC(=O)O[C@@H]2[C@@H](C)I)c1	inactive	Dose-dependent effect	60%	Active	Active	Active	58.47%	Dose-dependent effect	Dose-dependent effect	60%	Active	inactive	55.8%	60%	inactive	66.93%	Active	inactive	Active	inactive	Activity [3]: Active; Activity [4]: Active; Activity [5]: Active; Activity [7]: Active; Activity [10]: Active; Activity [14]: Active; Activity [17]: inactive; Activity [18]: Active; Activity [21]: inactive; Activity [25]: inactive; Activity [26]: Active; Activity [32]: Active; Activity [33]: 78.89%; Activity [34]: Dose-dependent effect; Activity [35]: 80%; Activity [36]: inactive
Cc1ccc(C)c([C@@H]2CC(=O)O[C@H]2[C@H](C)I)c1	inactive	Dose-dependent effect	25%	Active	Active	Active	20.35%	Dose-dependent effect	Dose-dependent effect	25%	Active	inactive	30.04%	25%	inactive	32.35%	Active	inactive	Active	inactive	Activity [37]: Active; Activity [38]: Active; Activity [39]: Active; Activity [40]: Active; Activity [41]: inactive; Activity [42]: Active; Activity [43]: inactive; Activity [44]: Active; Activity [45]: Active; Activity [32]: Active; Activity [33]: 73.53%; Activity [34]: Dose-dependent effect; Activity [35]: 80%
